# Laboratory results published in US4705805A, “Antithrombotic agent” (priority 1978, dated 1987).
# Like-named read-outs stand apart in the source and are kept apart here.
# Tests used:
# [1] = test system: rabbit blood platelets (platelet rich plasma), ADP-induced aggregation; experiment: inhibition of platelet aggregation in rabbit platelet rich plasma (in vitro), induced by ADP; format: cell-based; settings: Oryctolagus cuniculus, Platelet, read-out: percentage of inhibition, ADP; for inhibition at 3 µg/mL: 3 μg/ml; for inhibition at 10 µg/mL: 10 μg/ml
# Protocol: (§1) In this example, the inhibition of platelet aggregation in rabbit platelet rich plasma (in vitro) is tested.
# (§2) In this test, 9 vol. of blood is sampled from the carotid artery of rabbits (2 to 2.5 Kg) and placed in a silicon-coated flask containing 1 vol. of 3.8% sodium citrate. The thus obtained blood is centrifuged at 1,000 rpm for 15 minutes to obtain platelet rich plasma (referred to as "PRP" hereinafter). The aggregation of blood platelets is observed using an aggregometer (made by Bryston Co.) and the degree of aggregation after the addition of aggregation promoting substances is measured by nephelometry, i.e., through increase in light transmission.
# (§3) The PRP (0.9 ml) is placed in a silicon-coated cuvett of the aggregometer. Then, 0.05 ml of physiological saline solution containing various concentrations of test reagents or control reagents is added and the mixture is allowed to stand for one minute. Compounds promoting aggregation are then added and the absorbancy of the solution is measured and the percent inhibition of aggregation is calculated according to the following equation: [formula] C: Transmittancy showing the maximum percent aggregation by physiological saline solution
# (§4) D: Transmittancy showing the maximum percent aggregation by sample
# (§5) Test for the inhibition of platelet aggregation induced by ADP, collagen and thrombin.
# [2] = test system: rabbit blood platelets (platelet rich plasma), collagen-induced aggregation; experiment: inhibition of platelet aggregation in rabbit platelet rich plasma (in vitro), induced by collagen; format: cell-based; settings: Oryctolagus cuniculus, Platelet, read-out: percentage of inhibition, collagen; for inhibition at 3 µg/mL: 3 μg/ml; for inhibition at 10 µg/mL: 10 μg/ml; for inhibition at 1 µg/mL: 1 μg/ml
# Protocol: as §1, §2, §3, §4, §5
# [3] = acute toxicity, Behrens-Karber's method; format: in vivo; settings: in vivo; mouse, oral
# Protocol: In this example, the acute toxicity of compounds of the invention is determined by Behrens-Karber's method using, 5 male dd-strain for each group weighing 20±1 g. A 0.3% CMC suspension of the test compound (concentration of the test compound: 100 mg/ml) is then orally administered to each mouse.
# [4] = test system: human platelet rich plasma, ADP-induced aggregation; experiment: inhibition of platelet aggregation in human platelet rich plasma, induced by ADP; format: cell-based; settings: human PRP, read-out: percentage inhibition, ADP; for inhibition at 30 µg/mL: 30 μg/ml; for inhibition at 100 µg/mL: 100 μg/ml; for inhibition at 10 µg/mL: 10 μg/ml
# Protocol: as §2, §3, §4
# (§6) In this example, the same procedures are repeated as in Example 10 except that human platelet rich plasma is used in place of rabbit platelet rich plasma.
# [5] = test system: human platelet rich plasma, collagen-induced aggregation; experiment: inhibition of platelet aggregation in human platelet rich plasma, induced by collagen; format: cell-based; settings: human PRP, read-out: percentage inhibition, collagen; for inhibition at 30 µg/mL: 30 μg/ml; for inhibition at 100 µg/mL: 100 μg/ml; for inhibition at 10 µg/mL: 10 μg/ml
# Protocol: as §2, §3, §4, §6
# [6] = test system: mice, death by ADP injection; experiment: prevention of death of mice by ADP addition (in vivo), oral administration
# Protocol: In this example, prevention of death of mice by ADP addition (in vivo) is tested. It is shown that intravenous administration of a great amount of ADP to mice causes aggregated blood platelets to be captured in the pulmonary capillaries so that the mice die of respiratory distress.
# The test is carried out according to Roba's method. [Eur. J. Pharmacol. 37, 265-274 (1976)]. Specifically, CMC solution (0.3%) and CMC suspension containing the test compound and control compounds are orally administered to mice in a ratio of 0.1 ml/10 g (body weight). After one hour, an aqueous solution of ADP (60 mg/ml) is injected into the tail vein in a volume of 0.1 ml/10 g (body weight) every 10 seconds and the mortality is calculated.
# [7] = rabbit PRP, ADP 10^-5 M, 30 μg/ml
# [8] = rabbit PRP, ADP 10^-5 M, 100 μg/ml
# [9] = oral, 100 mg/Kg, ADP i.v. after one hour
Compound,LD50 [3],"inhibition at 30 µg/mL [1, 7]","inhibition at 100 µg/mL [1, 8]","inhibition at 30 µg/mL ([2]; rabbit PRP, 30 μg/ml)","inhibition at 100 µg/mL ([2]; rabbit PRP, 100 μg/ml)",inhibition at 30 µg/mL [4],inhibition at 100 µg/mL [4],inhibition at 30 µg/mL [5],inhibition at 100 µg/mL [5],"inhibition at 10 µg/mL ([1]; rabbit PRP, ADP 10^-5 M)",inhibition at 3 µg/mL ([2]; rabbit PRP),inhibition at 10 µg/mL ([2]; rabbit PRP),inhibition at 10 µg/mL [5],other results
"O=C(Nc1ccccc1[N+](=O)[O-])c1ccccc1SSc1ccccc1C(=O)Nc1ccccc1[N+](=O)[O-] [Compound XII, 2,2'-dithiobis(N-o-nitrophenylbenzamide)]",≥ 1000 mg/kg,,,,,,,,,,,,,inhibition at 30 µg/mL [1]: 20%; inhibition at 100 µg/mL [1]: 50%; inhibition at 30 µg/mL [2]: 45%; inhibition at 100 µg/mL [2]: 90%
"CCCCCCCCCCCC(=O)OCCNC(=O)c1ccccc1SSc1ccccc1C(=O)NCCOC(=O)CCCCCCCCCCC [Compound XIX, 2,2'-dithiobis(N-2-dodecanoyloxyethylbenzamide)]",≥ 1000 mg/kg,12%,72%,54%,100%,5%,35%,16%,46%,,,,,
"O=C(NCCCN1CCOCC1)c1ccccc1SSc1ccccc1C(=O)NCCCN1CCOCC1 [Compound XL, 2,2'-dithiobis(N-3-morpholinopropylbenzamide)]",≥ 1000 mg/kg,100%,,100%,100%,85%,100%,100%,100%,69%,21%,98%,40%,"inhibition at 3 µg/mL ([1]; rabbit PRP, ADP 10^-5 M): 26%; inhibition at 10 µg/mL [4]: 65%"
"O=C(NC(CO)(CO)CO)c1ccccc1SSc1ccccc1C(=O)NC(CO)(CO)CO [Compound XLI, 2,2'-dithiobis[N-2-hydroxy-1,1-di-(1'-hydroxymethyl)-ethylbenzamide]]",≥ 1000 mg/kg,22%,71%,7%,96%,,,,,,,,,
"COCCNC(=O)c1ccccc1SSc1ccccc1C(=O)NCCOC [Compound XVIII, 2,2'-dithiobis(N-2-methyloxyethylbenzamide)]",≥ 1000 mg/kg,,75%,100%,100%,20%,65%,45%,100%,,,40%,10%,
"CCOC(CN1CCN(C(=O)c2ccccc2SSc2ccccc2C(=O)N2CCN(CC(OCC)c3ccccc3)CC2)CC1)c1ccccc1 (stereo not shown) [Compound XXIX, 2,2'-dithiobis[N'-(2-phenyl-2-ethyloxyethyl)benzpiperazide]]",≥ 1000 mg/kg,43%,,100%,,,,,,32%,0%,55%,,
"O=C(NCCNCCO)c1ccccc1SSc1ccccc1C(=O)NCCNCCO [Compound XXV, 2,2'-dithiobis[N-2-(2-hydroxyethylamino)-ethylbenzamide]]",≥ 1000 mg/kg,10%,,42%,,,10%,4%,25%,,,,,
"O=C(NC1CCCCC1)c1ccccc1SSc1ccccc1C(=O)NC1CCCCC1 [Compound XXVI, 2,2'-dithiobis(N-cyclohexylbenzamide)]",≥ 1000 mg/kg,30%,,25%,,,,,,,,,,
"O=C(c1ccccc1SSc1ccccc1C(=O)N1CCOCC1)N1CCOCC1 [Compound XXVII, 2,2'-dithiobis(benzmorpholide)]",≥ 1000 mg/kg,100%,,100%,,5%,45%,35%,100%,60%,59%,100%,0%,"inhibition at 3 µg/mL ([1]; rabbit PRP, ADP 10^-5 M): 40%; inhibition at 1 µg/mL ([2]; rabbit PRP): 40%"
"O=C(c1ccccc1SSc1ccccc1C(=O)N1CCN(c2ccccc2)CC1)N1CCN(c2ccccc2)CC1 [Compound XXVIII, 2,2'-dithiobis(N'-phenylbenzpiperazide)]",≥ 1000 mg/kg,55%,,99%,,,,,,19%,14%,55%,,
"O=C(c1ccccc1SSc1ccccc1C(=O)N1CCN(CC=Cc2ccccc2)CC1)N1CCN(CC=Cc2ccccc2)CC1 [Compound XXX, 2,2'-dithiobis[N'-(3-phenyl-propene-1-yl)benzpiperazide]]",≥ 1000 mg/kg,17%,,40%,,,,,,,,,,
"O=C(NCCO)c1cc(Cl)ccc1SSc1ccc(Cl)cc1C(=O)NCCO [Compound XXXI, 2,2'-dithiobis(5-chloro-N-2-hydroxyethyl)benzamide]",≥ 1000 mg/kg,80%,100%,100%,100%,50%,88%,60%,100%,43%,100%,100%,12%,"inhibition at 3 µg/mL ([1]; rabbit PRP, ADP 10^-5 M): 0%; inhibition at 1 µg/mL ([2]; rabbit PRP): 26%; inhibition at 10 µg/mL [4]: 10%"
"COc1ccc(Cc2nccc3cc(OC)c(OC)cc23)cc1OC [papaverine, reference compound]",,,,,,,,,,,,,,"inhibition at 30 µg/mL [1]: 14%; inhibition at 100 µg/mL [1]: 99%; inhibition at 30 µg/mL [2]: 34%; inhibition at 100 µg/mL [2]: 100%; effect in reducing mortality (ADP) ([6]; in words, oral or intravenous administration, Table 3): ineffective; Mortality [6, 9]: 60%; Score (mortality) [6, 9]: 6/10"
